Results taken from patent publication US20090088380A1, “GHRH ANALOGS AND THERAPEUTIC USES THEREOF” (priority 2007, published 2009).
Non-standard residues stand in square brackets, D forms with d. Residues, ends and D or L forms follow the SMILES beside them.

How the values were obtained:
[1] = molecular target: T1, human GHRH receptor (Homo sapiens, UniProt Q02643); experiment: 125I-GHRH competitive binding assay in BHK cell membrane preparations; settings: in comparison with hGHRH(1-29)NH2, ratio IC50 hGHRH(1-29)-NH2/IC50 analog
T1 construct: expressed in transfected cells; host or cells: BHK (baby hamster kidney) 570 cells, membrane preparations
T1 sequence (Q02643 23-423): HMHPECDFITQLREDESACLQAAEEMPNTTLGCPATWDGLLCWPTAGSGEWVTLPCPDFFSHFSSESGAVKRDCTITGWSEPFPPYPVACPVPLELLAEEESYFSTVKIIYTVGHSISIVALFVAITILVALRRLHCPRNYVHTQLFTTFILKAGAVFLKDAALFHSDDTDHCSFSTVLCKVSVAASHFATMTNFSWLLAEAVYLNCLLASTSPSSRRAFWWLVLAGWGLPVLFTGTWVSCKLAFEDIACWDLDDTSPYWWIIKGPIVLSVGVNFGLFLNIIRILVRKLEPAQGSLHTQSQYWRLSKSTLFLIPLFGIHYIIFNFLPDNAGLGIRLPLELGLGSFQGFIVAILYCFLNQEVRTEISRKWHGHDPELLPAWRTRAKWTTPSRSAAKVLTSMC
Description: Non specific binding was determined in presence of 1 μM hGHRH(1-29)NH2. Incubation was carried out at equilibrium (23° C., 60 min) and stopped by centrifugation (12,000 g, 5 min, at 4° C.). The radioactivity content in pellets was determined by gamma counting. The affinity of hGHRH(1-29) NH2 was tested in each experiment to assess the validity of the assay and determine the relative affinity of the analogs.
Values represent the mean±SEM of 3 experiments performed in triplicate for the analogs and the mean±SEM of 2 experiments performed in triplicate for hGHRH(1-44) NH2.
For the binding assay results presented in Tables 8 to 11, values represent the mean±SEM of 8 independent experiments performed in triplicate for the analogs and the mean±SEM of 4 experiments performed in triplicate for hGHRH(1-29)NH2. […] The relative affinity was obtained by taking the ratio IC50 of hGHRH (1-29)-NH2/IC50 analog.

[2] = tested on: malnourished subjects with CKD; experiment: Phase II CKD: hormones (TSH, free thyroxin, testosterone, oestradiol); type: in vivo, human; settings: ITT
Description: A blood sample was taken at screening for analysis of TSH and free thyroxin. […] The hormones testosterone (nmol/L) and oestradiol (nmol/L) were measured at baseline and on Day 28 because those could be affected by GH and could lead to secondary changes in body composition. Samples were analysed locally.

[3] = tested on: GH and IGF-1 secretion; experiment: Phase I/II study in healthy male volunteers: GH and IGF-1 secretion; type: in vivo, human
Text: The primary objectives of the Phase I/II study were to assess safety and tolerability of escalating doses of the GHRH(1-29)NH2 synthetic analog (Maximal Tolerated Dose—MTD) and to determine the minimal effective dose (MED) of the GHRH(1-29)NH2 synthetic analog in terms of stimulation of GH and IGF-1 secretion. The secondary objectives were to establish the lowest dose of the GHRH(1-29)NH2 synthetic analog that induces maximal response with a single subcutaneous administration into healthy male volunteers, to determine the MED for subsequent studies and to establish the most representative blood sampling time for evaluation of GH secretion profile after GHRH(1-29)NH2 synthetic analog administration to be used in subsequent studies.
It was a crossover single-blinded Phase I/II trial of escalating doses of the GHRH(1-29)NH2 synthetic analog controlled versus placebo. Ten healthy middle-aged male volunteers, between 50 and 55 years old, were recruited. All 10 subjects received a single subcutaneous dose of the GHRH(1-29)NH2 synthetic analog (reconstituted in water for injection), per day for 5 days, in a dose range from 5 to 25 μg/kg of body weight (lower than the maximal dose used to treat GH deficiency in children, which was 30 μg/kg of body weight).
Each volunteer was hospitalized for 6 days. All volunteers were randomized into 5 groups (2 volunteers per group). During the first 24 hours of hospitalization (Day 0), scheduled blood samples were obtained for GH and IGF-1 assessment (GH and IGF-1 baseline sampling) and then from Day 1 until Day 5, following each GHRH(1-29)NH2 synthetic analog or placebo dose administration, according to the established randomization plan.
Once the volunteers were considered eligible, they were hospitalized for a period of 5 consecutive days. On Day 0 of admission successive samples of blood were taken to perform the basal secretion profile of GH during 24 hours. During 5-day hospitalization period, after the initial blood sampling to determine fasting glucose level, the appropriate dose of the GHRH(1-29)NH2 synthetic analog or placebo was administered and multiple samplings were performed to assess the profile of GH, postprandial glucose level and electrocardiogram after 60 minutes of the application of the GHRH(1-29)NH2 synthetic analog/placebo. Eight hours after drug administration, samples were obtained to determine IGF-1 level, thyroid hormones and routine analysis. After 30 days of admission, all the volunteers returned for new clinical evaluation to record any adverse events that could have occurred from the last day of hospitalization period and to take a blood sample for later determination of anti-GHRH(1-29)NH2 synthetic analog antibodies.
Serum human GH was measured by using a commercial DSL-1900 ACTIVE® Human Growth Hormone Coated-Tube Immunoradiometric Assay Kit purchased from Diagnostic Systems Laboratories, Inc., Texas, USA. Serum IGF-1 was measured using DSL-9400 ACTIVE® Free Insulin-Like Growth Factor-I Coated-Tube IRMA Kit purchased from Diagnostic Systems Laboratories.
To determine MED, GH secretion curves were drawn and the area under the curve (AUC) calculated for each study drug dose.

[4] = Day 0, listed as GHRH(1-29)NH2 synthetic analog
[5] = Day 28, listed as GHRH(1-29)NH2 synthetic analog

CC[C@H](C)[C@H](NC(=O)[C@H](C)NC(=O)[C@H](CC(=O)O)NC(=O)[C@@H](C)NC(=O)[C@@H](N)Cc1ccc(O)cc1)C(=O)N[C@@H](Cc1ccccc1)C(=O)N[C@H](C(=O)N[C@@H](CC(N)=O)C(=O)N[C@@H](CO)C(=O)N[C@H](Cc1ccc(O)cc1)C(=O)N[C@@H](CCCNC(=N)N)C(=O)N[C@@H](CCCCN)C(=O)N[C@H](C(=O)N[C@@H](CC(C)C)C(=O)N[C@H](C)C(=O)N[C@@H](CCC(N)=O)C(=O)N[C@@H](CC(C)C)C(=O)N[C@@H](CO)C(=O)N[C@@H](C)C(=O)N[C@@H](CCCNC(=N)N)C(=O)N[C@@H](CCCCN)C(=O)N[C@@H](CCCCN)C(=O)N[C@@H](CC(C)C)C(=O)N[C@@H](CCC(N)=O)C(=O)N[C@@H](CC(=O)O)C(=O)N[C@H](C(=O)N[C@@H](CCSC)C(=O)N[C@@H](CO)C(=O)N[C@@H](CCCNC(=N)N)C(N)=O)[C@@H](C)CC)C(C)C)[C@@H](C)O [GHRH analog #5, [D-Ala^2, D-Tyr^10, D-Ala^15, Lys^22] hGHRH(1-29)-NH2] (H-Y[dA]DAIFTNS[dY]RKVL[dA]QLSARKKLQDIMSR-NH2)
Relative binding affinity (R1) in hGHRH-R BHK-expressing cells ([1]; listed as 5): 939 ± 249 | Relative binding affinity (R1) in hGHRH-R BHK-expressing cells ([1]; listed as GHRH analog # 5): 939 ± 249 | Relative binding affinity (R1) in hGHRH-R BHK-expressing cells ([1]; listed as GHRH(1-29)NH2 synthetic analog): 939 | Oestradiol: mean (SD) ([2]; Day 0): 30.400 (23.333) pg/mL | Testosterone: mean (SD) ([2]; Day 0): 1.550 (1.974) ng/mL | Oestradiol: mean (SD) [2, 4]: 30.400 pg/mL | Testosterone: mean (SD) [2, 4]: 1.550 ng/mL | Oestradiol: mean (SD) ([2]; Day 28): 16.281 (10.896) pg/mL | Testosterone: mean (SD) ([2]; Day 28): 1.032 (1.327) ng/mL | Oestradiol: mean (SD) [2, 5]: 16.281 pg/mL | Testosterone: mean (SD) [2, 5]: 1.032 ng/mL | AUC of GH level in the first 12 hours ([3]; 5 μg/kg body weight): 61.76 | AUC of GH level in the first 12 hours ([3]; 10 μg/kg body weight): 71.25 | AUC of GH level in the first 12 hours ([3]; 15 μg/kg body weight): 135.17 | AUC of GH level in the first 12 hours ([3]; 25 μg/kg body weight): 149.48 | IGF-1 mean level ([3]; Day 1 of treatment): 156 ng/mL | IGF-1 mean level ([3]; Day 5 of treatment): 231 ng/mL | GH levels compared to placebo ([3]; any dose): unequivocally higher at any dose
